The values below come from patent US20230180804A1, “FLAVOR COMPOSITION, AND FOOD AND BEVERAGE” (TAKASAGO INTERNATIONAL CORPORATION, priority 2020, published 2023).

This test can be described thus: Sensory evaluation of p-cresol odor masking in p-cresol-containing citrus-flavored confectionery (tablet). Conditions: for p-Cresol Odor Intensity: tablet with 200 ppb p-cresol, average score of 6 panelists, scale 0-4. As to the method: Lemon cold-pressed oil was added to the tablet having the composition presented in Table A at a concentration of 1 % by mass, and medium chain fatty acid triglycerides (MCT) was used to adjust p-cresol to a concentration of 0.1%, which was further added so as to reach 200 ppb in the citrus flavored confectionery. To this p-cresol-containing citrus-flavored confectionery, 1-oxacycloheptadecan-7-en-2-one was added at the concentrations presented in Table 12, and then tableting was performed to confirm the p-cresol odor intensity (masking effect) and the influence on the citrus flavor of each sample.
Six skilled panelists were selected to perform the same sensory evaluation as in Example 1. The results are as in Table 12, presenting the average score of the evaluation results for each panelist.

Setting [1] is: citrus-flavored confectionery (tablet) with 200 ppb p-cresol.

With `O=C1CCCCCCCCCCCCCCO1` [Pentalide, pentalide], the “p-Cresol Odor Intensity” value (4 ppb added) came to 2.3 points; the “p-Cresol Odor Intensity” value (40 ppb added) was 1.7 points; the “p-Cresol Odor Intensity” value (40 ppt added) came to 2.8 points; the “p-Cresol Odor Intensity” value (400 ppb added) stood at 1.5 points; the “p-Cresol Odor Intensity” value (400 ppt added) is 2.7 points. In addition, the “concentration at which the compound masks the p-cresol odor and does not affect the citrus flavor, lower limit” value under setting [1] was no less than 400 ppt. In addition, the “concentration at which the compound masks the p-cresol odor and does not affect the citrus flavor, upper limit” value under setting [1] is no more than 400 ppb.
